Positions of bridges follow the written chain, without caps; N, C: chain ends. Residues, ends and D or L forms follow the SMILES beside them.
Columns and labels:
[1] = target: T1, Ac-AChBP (acetylcholine binding protein) (Aplysia californica, UniProt Q8WSF8); experiment: biochemical
T1 construct: The cDNA encoding the full-length Ac-AChBP was cloned into the pFastBac-Dual vector; 6xHis (C); made in house; host or cells: High Five insect cells (baculovirus, Bac-to-Bac; virus made in Sf9)
T1 sequence (Q8WSF8 20-236): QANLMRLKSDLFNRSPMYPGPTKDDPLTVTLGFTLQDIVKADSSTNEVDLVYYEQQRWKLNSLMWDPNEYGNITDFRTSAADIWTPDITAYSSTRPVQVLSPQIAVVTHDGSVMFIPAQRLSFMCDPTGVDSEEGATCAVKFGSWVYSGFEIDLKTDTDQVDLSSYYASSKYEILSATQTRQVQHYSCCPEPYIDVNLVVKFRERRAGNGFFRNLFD

[2] = target: Aplysia californica acetylcholine binding protein (Ac-AChBP) (Aplysia californica); experiment: SPR

Compound	Kd [1] [µM]	Kd [2] [µM]
CC[C@H](C)[C@@H]1NC(=O)[C@H](CCC(=O)O)NC(=O)[C@@H]2CCCN2C(=O)[C@H](Cc2cnc[nH]2)NC(=O)[C@H](CC(=O)O)NC(=O)[C@H](C(C)C)NC(=O)[C@H](CC(N)=O)NC(=O)[C@@H]2CSSC[C@H](NC(=O)CN)C(=O)N[C@@H](CSSC[C@@H](C(N)=O)NC1=O)C(=O)N[C@@H](CO)C(=O)N[C@@H](Cc1cnc[nH]1)C(=O)N1CCC[C@H]1C(=O)N[C@@H](C)C(=O)N2 [LvIA WT]	0.132	
CC[C@H](C)[C@@H]1NC(=O)[C@H](CCC(=O)O)NC(=O)[C@@H]2CCCN2C(=O)[C@H](Cc2cnc[nH]2)NC(=O)[C@H](CC(=O)O)NC(=O)[C@H](C(C)C)NC(=O)[C@H](C)NC(=O)[C@@H]2CSSC[C@H](NC(=O)CN)C(=O)N[C@@H](CSSC[C@@H](C(N)=O)NC1=O)C(=O)N[C@@H](CO)C(=O)N[C@@H](Cc1cnc[nH]1)C(=O)N1CCC[C@H]1C(=O)N[C@@H](C)C(=O)N2 [LvIA (N9A)] (H-GCCSHPACAVDHPEIC-NH2; disulfide 2-8, 3-16)	0.0828	
α-conotoxin LvIA (peptide)		0.132
α-conotoxin LvIA (S4A) (peptide)		0.0238
α-conotoxin LvIA (N9A) (peptide)		0.0828
CC[C@H](C)[C@@H]1NC(=O)[C@H](CCC(=O)O)NC(=O)[C@@H]2CCCN2C(=O)[C@H](Cc2cnc[nH]2)NC(=O)[C@H](C)NC(=O)[C@H](C(C)C)NC(=O)[C@H](CC(N)=O)NC(=O)[C@@H]2CSSC[C@H](NC(=O)CN)C(=O)N[C@@H](CSSC[C@@H](C(N)=O)NC1=O)C(=O)N[C@@H](CO)C(=O)N[C@@H](Cc1cnc[nH]1)C(=O)N1CCC[C@H]1C(=O)N[C@@H](C)C(=O)N2 [LvIA (D11A)] (H-GCCSHPACNVAHPEIC-NH2; disulfide 2-8, 3-16)	0.0175	
CC[C@H](C)[C@@H]1NC(=O)[C@H](CCC(=O)O)NC(=O)[C@@H]2CCCN2C(=O)[C@H](Cc2cnc[nH]2)NC(=O)[C@H](CC(=O)O)NC(=O)[C@H](C(C)C)NC(=O)[C@H](CC(N)=O)NC(=O)[C@@H]2CSSC[C@H](NC(=O)CN)C(=O)N[C@@H](CSSC[C@@H](C(N)=O)NC1=O)C(=O)N[C@@H](C)C(=O)N[C@@H](Cc1cnc[nH]1)C(=O)N1CCC[C@H]1C(=O)N[C@@H](C)C(=O)N2 [LvIA (S4A)] (H-GCCAHPACNVDHPEIC-NH2; disulfide 2-8, 3-16)	0.0238	
